The text below walks through data of patent US9062060B2, “Substituted imidazo[2,1-A]isoindoles as PDE10 inhibitors” (H. Lundbeck A/S, priority 2010, dated 2015).

Data set [1] relates to PCP induced hyperactivity in male mice (NMRI). As to the kind of experiment: Phencyclidine (PCP) induced hyperactivity. The class given is in vivo. To be noted: at 5 mg/kg, per os 60 min before PCP 2.3 mg/kg s.c. The protocol: Male mice (NMRI, Charles River) weighing 20-25 g are used. Eight mice are used in each group receiving the test compound (5 mg/kg) plus PCP (2.3 mg/kg) including the parallel control groups receiving the vehicle of the test compound plus PCP or vehicle injections only. The injection volumen is 10 ml/kg. The experiment is made in normal light conditions in an undisturbed room. The test substance is injected per oss 60 min before injection of PCP, which is administered subcutaneous.
Immediately after injection of PCP the mice are placed individually in special designed test cage (20 cm×32 cm). The activity is measured by 5×8 infrared light sources and photocells spaced by 4 cm. The light beams cross the cage 1.8 cm above the bottom of the cage. Recording of a motility count requires interruption of adjacent light beams, thus avoiding counts induced by stationary movements of the mice.
Motility is recorded in 5 min intervals for a period of 1 hour. The drug effect is calculated on the total counts during the 1 hour behavioral test period in the following manner. […] The 100 percent effect of PCP is accordingly calculated to be total motility counts minus baseline. The response in groups receiving test compound is thus determined by the total motility counts minus baseline, expressed in percent of the similar result recorded in the parallel PCP control group. […]

The test system of the next data set is catalepsy in rats. The conditions noted are these: cited from earlier work.
Data set [2] deals with hyperactivity in rats induced by PCP. The conditions noted are these: cited from earlier work.

In the case of `Cc1ncc(C)n2nc(CCc3cn4c(n3)-c3ccccc3C4)nc12` [2-[-2-(5,8-Dimethyl-[1,2,4]triazolo[1,5-a]pyrazin-2-yl)-ethyl]-5H-imidazo[2,1-a]isoindole], the “Inhibition of PCP induced hyperactivity” value in data set [1] came to 100%.
For `COc1ccc(Cc2nccc3cc(OC)c(OC)cc23)cc1OC` [Papaverine], the “Effect on the cataleptic effect of the D2 receptor antagonist haloperidol” value in the data set on catalepsy in rats (combined with haloperidol) is on record as “potentiated the cataleptic effect”. In addition, the “Catalepsy on its own” value in the data set with catalepsy in rats (papaverine alone) was “did not cause catalepsy on its own”. The “Effect on hyperactivity induced by PCP” value in data set [2] was “reduced hyperactivity”.
